Assay [1] deals with T1, BCLXL (Homo sapiens, UniProt Q07817, V10N/V9A). Kind of assay: Fluorescence polarisation assay (PUMA-based probe displacement). Note: 20 nM protein, 10 nM fluorescent probe. The format is binding. (Fluorescence polarisation rises when a labelled molecule tumbles more slowly, as on binding a larger partner.)
Assay [2] concerns the target T1, BCLXL. Kind of assay: AlphaLISA assay (BIM peptide displacement). The format is binding. The conditions noted are these: 20 pM protein, 1 nM peptide. Here is the method:
AlphaLISA assay measures an increase in alpha signal upon binding biotinylated GST(1-218)-(FACTOR_XA)-hs ? (2-209)(SEQ ID:02—GST UniProtKB® primary accession number P08515 and BCLXL UniProtKB® primary accession number Q07817-1) coupled to a Streptavidin labeled Alpha donor bead to N-terminally labeled peptide derived from BIM (Fluorescein-betaAla-Ahx-SEQID:05, wherein SEQ ID:05 is […]) coupled to an Anti-FTIC AlphaLISA acceptor bead.
GST(1-218)(FACTOR_XA)-hs ? (2-209) was biotinylated in 50 mM phosphate buffer using a 20 fold excess of EZ Link NHS-LC-Biotin (thermoFisher catalogue number 21336) overnight at 4° C.
The addition of a compound which binds competitively to the same site as the peptide will result in an decrease in the Alpha signal of the available donor bead-protein-peptide-acceptor bead complex due to displacement of the peptide.
An 11-point serial dilution of each compound was prepared in DMSO, the final buffer conditions were 10 mM 4-(2-hydroxyethyl)-1-piperazineethanesulfonic acid [HEPES], 150 mM NaCl, 0.05% Tween 20, pH 7.4 and 4% DMSO. The final protein concentration in the assay was 20 pM with the peptide present at 1 nM). Alpha beads were used at a final concentration of 5 ug/mL. The experiments were incubated for overnight at 23° C. after acceptor bead addition. Finally the donor bead is added and incubated for 2 hours at 23° C. before Alpha signal measured on a Biotek Synergy2 plate reader (Excitation 680 nm, emission 615 nm).

The next assay deals with H146 cells. Kind of assay: H146 cell viability, MTT assay. The format is cell-based. The conditions noted are these: Homo sapiens, NCI-H146, 48 h, 48 h exposure. In a few lines: (§1)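 Cells grown in RPMI 1640 with 10% heat-inactivated FBS at 37° C, 5% CO2, exposed 48 h to nine 3.16-fold serial compound dilutions in triplicate. MTT added for 4 h, SDS/HCl solubilisation overnight, absorbance at 540 nm; IC50 by four-parameter fit.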

A further assay has as its system MOLT-4 cells. Kind of assay: MOLT-4 cell viability, MTT assay. It is filed as cell-based. The conditions noted are these: Homo sapiens, MOLT-4, 48 h, 48 h exposure. In a few lines:
as §1

The target of another assay is T2, Bcl-xL protein (Homo sapiens, UniProt Q07817, N197C).
T2 construct: (2-197)[N197C]; His-His (two His8 stretches joined by a Gly/Ala/Ser/Thr linker)
T2 sequence (Q07817 2-197 N197C): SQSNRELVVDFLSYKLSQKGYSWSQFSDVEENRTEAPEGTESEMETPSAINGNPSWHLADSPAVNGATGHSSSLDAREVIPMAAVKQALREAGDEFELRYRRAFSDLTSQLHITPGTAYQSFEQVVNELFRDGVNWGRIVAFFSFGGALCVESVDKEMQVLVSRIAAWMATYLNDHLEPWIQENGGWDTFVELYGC
Kind of assay: Fluorescence quenching assay (PUMA peptide displacement). The conditions noted are these: 1 nM protein, 400 nM peptide, 2 hours at 23° C.; KI determined from IC50. The format is binding. Put shortly:
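Displacement of a TQ5WS-quencher-labelled PUMA peptide (400 nM) from Cy5-labelled His-tagged Bcl-xL 2-197 N197C (1 nM) raises fluorescence. An 11-point compound dilution was incubated 2 h at 23 °C in HEPES 10 mM, NaCl 150 mM, 0.05% Tween 20, pH 7.4, 5% DMSO. Fluorescence was read at Ex 620/Em 680 nm, and KI was derived from IC50.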

As a reminder, the Ki is a measure of affinity in units of concentration, obtained from inhibition or displacement. Broadly, the IC50 is the concentration that inhibits the measured activity by half.

T1 sequence (Q07817 with tags, fused parts or gaps V9A/V10N): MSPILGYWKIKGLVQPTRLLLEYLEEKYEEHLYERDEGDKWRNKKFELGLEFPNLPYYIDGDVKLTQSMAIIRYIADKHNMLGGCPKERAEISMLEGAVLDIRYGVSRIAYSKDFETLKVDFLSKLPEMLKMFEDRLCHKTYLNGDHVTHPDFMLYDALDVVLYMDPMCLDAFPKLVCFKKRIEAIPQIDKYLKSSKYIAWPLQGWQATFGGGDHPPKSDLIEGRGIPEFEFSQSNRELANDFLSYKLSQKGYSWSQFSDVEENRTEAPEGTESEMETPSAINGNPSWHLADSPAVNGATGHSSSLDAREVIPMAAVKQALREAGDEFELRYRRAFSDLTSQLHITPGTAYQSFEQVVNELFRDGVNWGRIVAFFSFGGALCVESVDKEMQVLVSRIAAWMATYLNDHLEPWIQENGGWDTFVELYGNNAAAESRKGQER

On to `COCC(O)CCN(c1cc(C)c(Nc2nc3ccccc3s2)nn1)c1nc(C(=O)O)cs1` (centres unmarked) [Example 93, 2-[[6-(1,3-Benzothiazol-2-ylamino)-5-methyl-pyridazin-3-yl]-(3-hydroxy-4-methoxy-butyl)amino]thiazole-4-carboxylic acid], for which the inhibitory constant (Ki) at BCLXL [1] is 6.8 nM. The IC50 on BCLXL [2] was 6.4 nM; in the assay on H146 cells, over 15000 nM; in the assay with MOLT-4 cells, 9400 nM.
In the case of `Cc1cc(N(C)c2nc(C(=O)O)c(C3CCN(S(C)(=O)=O)CC3)s2)nnc1Nc1nc2ccccc2s1` [Example 94, 2-({6-[(1,3-Benzothiazol-2-yl)amino]-5-methylpyridazin-3-yl}(methyl)amino)-5-(1-methanesulfonylpiperidin-4-yl)-1,3-thiazole-4-carboxylic acid], the Ki at BCLXL [1] was 67 nM. Further, the IC50 on BCLXL [2] is 51 nM; in the assay on H146 cells, 4070 nM; in the assay on MOLT-4 cells it was at least 10000 nM.
On the same counts, the results for `Cc1cc(N(C)c2nc(C(=O)O)c(C3CCN(S(=O)(=O)Cc4ccccc4)CC3)s2)nnc1Nc1nc2ccccc2s1` [Example 95, 2-({6-[(1,3-Benzothiazol-2-yl)amino]-5-methylpyridazin-3-yl}(methyl)amino)-5-(1-phenylmethanesulfonylpiperidin-4-yl)-1,3-thiazole-4-carboxylic acid] are 24 nM, 22 nM, 9270 nM and 5010 nM.
Regarding `COC(CO)CCN(c1cc(C)c(Nc2nc3ccccc3s2)nn1)c1nc(C(=O)O)cs1` (centres unmarked) [Example 98, 2-[[6-(1,3-Benzothiazol-2-ylamino)-5-methyl-pyridazin-3-yl]-(4-hydroxy-3-methoxy-butyl)amino]thiazole-4-carboxylic acid], on BCLXL [1], the Ki stood at 2.3 nM. Besides, the values for the IC50 at BCLXL [2], in the assay with H146 cells and with MOLT-4 cells were 1.8 nM, over 15000 nM and over 15000 nM, respectively.
For `Cc1cc(N(C)c2nc(C(=O)O)c(CCCOc3ccc(C#CC[N+](C)(C)CCCS(=O)(=O)[O-])cc3F)s2)nnc1Nc1nc2ccccc2s1` [Example 101, 3-[3-[4-[3-[2-[[6-(1,3-Benzothiazol-2-ylamino)-5-methyl-pyridazin-3-yl]-methyl-amino]-4-carboxy-thiazol-5-yl]propoxy]-3-fluoro-phenyl]prop-2-ynyl-dimethyl-ammonio]propane-1-sulfonate], on BCLXL [1], the Ki is under 1 nM. In addition, the figures for the IC50 at BCLXL [2], in the assay on H146 cells and with MOLT-4 cells were 0.0022 nM, 1190 nM and 483 nM, respectively.
The corresponding values for `CNCC#Cc1ccc(OCCCc2sc(N(CCC(O)CO)c3cc(C)c(Nc4nc5ccccc5s4)nn3)nc2C(=O)O)c(F)c1` (centres unmarked) [Example 108, 2-[[6-(1,3-Benzothiazol-2-ylamino)-5-methyl-pyridazin-3-yl]-(3,4-dihydroxybutyl)amino]-5-[3-[2-fluoro-4-[3-(methylamino)prop-1-ynyl]phenoxy]propyl]thiazole-4-carboxylic acid] are under 1 nM, 0.0066 nM, 22.3 nM and 46.7 nM.
Turning to `CNCC#Cc1ccc(OCCCc2sc(N(CCCCO)c3cc(C)c(Nc4nc5ccccc5s4)nn3)nc2C(=O)O)c(F)c1` [Example 114, 2-({6-[(1,3-Benzothiazol-2-yl)amino]-5-methylpyridazin-3-yl}(4-hydroxybutyl)amino)-5-(3-{2-fluoro-4-[3-(methylamino)prop-1-yn-1-yl]phenoxy}propyl)-1,3-thiazole-4-carboxylic acid], the figures for the IC50 at BCLXL [2], with H146 cells and with MOLT-4 cells were 0.053 nM, 1.58 nM and 3.81 nM, respectively. For the same molecule, on Bcl-xL protein, the Ki stood at 0.011 nM.
As to `CNCC#Cc1ccc(OCCCc2sc(N(CCCC(O)CO)c3cc(C)c(Nc4nc5ccccc5s4)nn3)nc2C(=O)O)c(F)c1` (centres unmarked) [Example 119, 2-[[6-(1,3-Benzothiazol-2-ylamino)-5-methyl-pyridazin-3-yl]-(4,5-dihydroxypentyl)amino]-5-[3-[2-fluoro-4-[3-(methylamino)prop-1-ynyl]phenoxy]propyl]thiazole-4-carboxylic acid], the Ki on BCLXL [1] is under 1 nM. Further, the IC50 at BCLXL [2] was determined as 0.006 nM; in the assay on H146 cells, 21.4 nM; with MOLT-4 cells, 97.4 nM.
Take `Cc1cc(N(CCC(O)CO)c2nc(C(=O)O)c(CCCOc3ccc(C#CCN(C)C)cc3F)s2)nnc1Nc1nc2ccccc2s1` (centres unmarked) [Example 123, 2-[[6-(1,3-Benzothiazol-2-ylamino)-5-methyl-pyridazin-3-yl]-(3,4-dihydroxybutyl)amino]-5-[3-[4-[3-(dimethylamino)prop-1-ynyl]-2-fluoro-phenoxy]propyl]thiazole-4-carboxylic acid]: the Ki at BCLXL [1] is under 1 nM. The IC50 on BCLXL [2] came out at 0.004 nM; in the assay with H146 cells, 6.25 nM; in the assay on MOLT-4 cells, 16.5 nM.
The corresponding values for `CNCC#Cc1ccc(OCCCc2sc(N(CCCO)c3cc(C)c(Nc4nc5ccccc5s4)nn3)nc2C(=O)O)c(F)c1` [Example 127, 2-[[6-(1,3-Benzothiazol-2-ylamino)-5-methyl-pyridazin-3-yl]-(3-hydroxypropyl)amino]-5-[3-[2-fluoro-4-[3-(methylamino)prop-1-ynyl]phenoxy]propyl]thiazole-4-carboxylic acid] are under 1 nM, 0.0066 nM, 9.04 nM and 11.3 nM.
The corresponding values for `Cc1cc(N(CCCCO)c2nc(C(=O)O)c(CCCOc3ccc(C#CC[N+](C)(C)CCCS(=O)(=O)[O-])cc3F)s2)nnc1Nc1nc2ccccc2s1` [Example 130, 3-[3-[4-[3-[2-[[6-(1,3-Benzothiazol-2-ylamino)-5-methyl-pyridazin-3-yl]-(4-hydroxybutyl)amino]-4-carboxy-thiazol-5-yl]propoxy]-3-fluoro-phenyl]prop-2-ynyl-dimethyl-ammonio]propane-1-sulfonate] are under 1 nM, 0.0054 nM, 201 nM and 108 nM.
On the same counts, the results for `Cc1cc(N(C)c2nc(C(=O)O)c(CC3(COc4ccc(C#CCN(C)C)cc4F)CC3)s2)nnc1Nc1nc2ccccc2s1` [Example 140, 2-({6-[(1,3-Benzothiazol-2-yl)amino]-5-methylpyridazin-3-yl}(methyl)amino)-5-{[1-({4-[3-(dimethylamino)prop-1-yn-1-yl]-2-fluorophenoxy}methyl)cyclopropyl]methyl}-1,3-thiazole-4-carboxylic acid] are under 1 nM, 0.024 nM, 142 nM and 23.4 nM.
As to `Cc1cc(N(CCCCO)c2nc(C(=O)O)c(CCCOc3ccc(C#CCN(CCCS(=O)(=O)O)CCCS(=O)(=O)O)cc3F)s2)nnc1Nc1nc2ccccc2s1` [Example 147, 2-({6-[(1,3-Benzothiazol-2-yl)amino]-5-methylpyridazin-3-yl}(4-hydroxybutyl)amino)-5-[3-(4-{3-[bis(3-sulfopropyl)amino]prop-1-yn-1-yl}-2-fluorophenoxy)propyl]-1,3-thiazole-4-carboxylic acid], the IC50 on BCLXL [2] is 0.0071 nM. Moreover, the Ki on Bcl-xL protein amounted to 0.0097 nM.
Regarding `Cc1cc(N(CCCCO)c2nc(C(=O)O)c(CCCOc3ccc(C#CCNCCCS(=O)(=O)O)cc3F)s2)nnc1Nc1nc2ccccc2s1` [Example 148, 2-[[6-(1,3-Benzothiazol-2-ylamino)-5-methyl-pyridazin-3-yl]-(4-hydroxybutyl)amino]-5-[3-[2-fluoro-4-[3-(3-sulfopropylamino)prop-1-ynyl]phenoxy]propyl]thiazole-4-carboxylic acid], at BCLXL [2], the IC50 turned out to be 0.0057 nM. For the same molecule, on Bcl-xL protein, the Ki was found to be 0.0012 nM.
As for `Cc1cc(N(C)c2nc(C(=O)O)c(C[C@H](C)COc3ccc(C#CCN(C)C)cc3F)s2)nnc1Nc1nc2ccccc2s1` [Example 161, 2-({6-[(1,3-Benzothiazol-2-yl)amino]-5-methylpyridazin-3-yl}(methyl)amino)-5-[(2S)-3-{4-[3-(dimethylamino)prop-1-yn-1-yl]-2-fluorophenoxy}-2-methylpropyl]-1,3-thiazole-4-carboxylic acid], the inhibitory constant (Ki) at BCLXL [1] is under 1 nM. The IC50 was found to be 0.032 nM at BCLXL [2], 30.2 nM in the assay on H146 cells and 3.23 nM with MOLT-4 cells.

Values taken from patent US12649733B2, “3,6-diamino-pyridazin-3-yl derivatives, pharmaceutical compositions containing them and their uses as pro-apoptotic agents” (LES LABORATOIRES SERVIER, priority 2019, dated 2026).
